Measurements as given in paper PMC8621101, “Inhibition of XPO-1 Mediated Nuclear Export through the Michael-Acceptor Character of Chalcones” (Pharmaceuticals, 2021).

Legend:
XPO1 = molecular target: T1, XPO1 (Homo sapiens, UniProt O14980); assay: XPO1 phenotypic reporter assay in HeLa NLSSV40-AcGFP-NESPKI cells; format: cell-based; settings: HeLa GFP reporter cell line; for IC50: 2 h treatment, mean ± SEM of two independent experiments, read-out: XPO1 inhibition IC50
T1 construct: the compounds were assayed in a reporter cell line based on the subcellular localization of a XPO1-dependent GFP reporter cargo protein; endogenous in cells; host or cells: HeLa cells stably transfected with the NLSSV40-AcGFP-NESPKI reporter (only the reporter cargo is transfected, not XPO1)
T1 sequence (O14980 whole entry): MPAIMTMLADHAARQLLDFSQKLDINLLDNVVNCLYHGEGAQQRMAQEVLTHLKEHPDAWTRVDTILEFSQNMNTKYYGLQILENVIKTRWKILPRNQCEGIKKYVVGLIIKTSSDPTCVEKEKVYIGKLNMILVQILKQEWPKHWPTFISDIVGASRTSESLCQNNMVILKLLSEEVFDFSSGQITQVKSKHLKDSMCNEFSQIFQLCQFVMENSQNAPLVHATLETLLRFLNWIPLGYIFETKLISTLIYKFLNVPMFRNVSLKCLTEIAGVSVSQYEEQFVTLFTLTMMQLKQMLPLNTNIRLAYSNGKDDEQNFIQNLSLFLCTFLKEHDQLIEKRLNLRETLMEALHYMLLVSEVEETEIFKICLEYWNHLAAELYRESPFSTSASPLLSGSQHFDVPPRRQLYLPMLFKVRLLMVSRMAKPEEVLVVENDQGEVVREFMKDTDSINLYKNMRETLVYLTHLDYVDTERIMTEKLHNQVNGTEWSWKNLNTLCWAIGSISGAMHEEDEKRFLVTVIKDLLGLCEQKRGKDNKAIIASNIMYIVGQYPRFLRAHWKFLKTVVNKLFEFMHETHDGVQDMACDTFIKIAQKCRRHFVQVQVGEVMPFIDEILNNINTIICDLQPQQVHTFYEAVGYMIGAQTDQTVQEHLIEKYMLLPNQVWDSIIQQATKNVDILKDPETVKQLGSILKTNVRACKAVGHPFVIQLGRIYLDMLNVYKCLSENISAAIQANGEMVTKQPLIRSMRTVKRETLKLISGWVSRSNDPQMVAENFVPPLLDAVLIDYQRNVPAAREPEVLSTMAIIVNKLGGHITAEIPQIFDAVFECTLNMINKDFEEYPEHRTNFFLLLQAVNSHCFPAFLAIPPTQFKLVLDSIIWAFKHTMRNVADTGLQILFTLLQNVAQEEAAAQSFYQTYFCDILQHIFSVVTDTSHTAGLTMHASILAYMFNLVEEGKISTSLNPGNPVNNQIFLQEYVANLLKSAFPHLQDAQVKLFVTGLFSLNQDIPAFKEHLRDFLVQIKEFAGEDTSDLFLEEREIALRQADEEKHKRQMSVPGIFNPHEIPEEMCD
Procedure: Stably transfected HeLa NLSSV40-AcGFP-NESPKI were cultured as described in Vercruysse et al.
To study the XPO1-mediated nuclear export, stably transfected HeLa NLSSV40-AcGFP-NESPKI reporter cells were seeded at 8000 cells per well in 96-well all clear tissue culture plates (TPP). After overnight incubation, cells were treated with different doses of compound or solvent (DMSO) for 2 h and then fixed and counterstained with DAPI. Fluorescence was read on an ArrayScan XTI High Content Reader (Thermo Fisher Scientific, Waltham, MA, USA). Nuclear and cytoplasmic compartments were segmented and their average pixel intensities in the green channel were quantitated employing the HCS Studio software. Genedata Screener software was used for dose-response curve fitting, and calculation of EC50 values was based on the percentage of cells having a predominant nuclear localisation (ratio of nuclear to cytoplasmic signal equal or above 1.4) of the reporter construct. Compounds were tested in two independent experiments and represented as mean ± SEM.

HCT-116 cells = assay: Cell proliferation assay (IncuCyte confluence), HCT-116; format: cell-based; settings: Homo sapiens; HCT-116 colorectal carcinoma; 72 h; mean of two independent experiments ± SEM; read-out: IC50 antiproliferative activity HCT-116
Procedure: (§1) Cancer cell lines HCT-116, NCI-H460, HL-60, K-562 and Z-138 were acquired from the American Type Culture Collection (ATCC, Manassas, VA, USA). The DND-41 cell line was purchased from the Deutsche Sammlung von Mikroorganismen und Zellkulturen (DSMZ Leibniz-Institut, Brunswick, Germany), and the HAP-1 cell line was ordered from Horizon Discovery (Horizon Discovery Group, Water Beach, UK). All cell lines were cultured as recommended by the suppliers. Culture media were purchased from Gibco Life Technologies and supplemented with 10% fetal bovine serum (HyClone, GE Healthcare Life Sciences, Chicago, Illinois, USA).
(§2) Adherent cell lines HCT-116, NCI-H460 and Hap-1 cells were seeded at a density between 500 and 1500 cells per well in 384-well tissue culture plates (Greiner). After overnight incubation, cells were treated with different concentrations of the test compounds. Suspension cell lines HL-60, K-562, Z-138 and DND-41 were seeded at densities ranging from 2500 to 5500 cells per well in 384-well culture plates containing the test compounds at the same concentration points.

[1] = system: panel of cancer cell lines; assay: Antiproliferative activity, panel of cancer cell lines; format: cell-based; settings: panel of cancer cell lines
Procedure: as §2

Z-138 cells = assay: Cell proliferation assay (IncuCyte confluence), Z-138; format: cell-based; settings: Homo sapiens; Z-138 non-Hodgkin lymphoma; 72 h; mean of two independent experiments ± SEM; read-out: IC50 antiproliferative activity Z-138
Procedure: as §1, §2

[2] = GSH reactivity assay (HPLC, DTNB quench); format: physicochemical; settings: 500 µM compound, 5 mM GSH, 37 °C; for Reaction with GSH (hetero-Michael addition), qualitative: PBS pH 7.4 with EDTA:DMSO 1:1
Procedure: In order to determine if these chalcones could react with thiol groups through a hetero-Michael addition reaction, a few selected compounds (9, 10, 13 and 18) were incubated with glutathione (GSH). After different incubation times, the reactions were quenched by adding 5,5′-dithiobis(2-nitrobenzoic acid) (DTNB, Ellman´s reagent) (1:1 ratio with respect to the initial concentration of GSH). The course of the reaction was followed by HPLC, adapting reported procedures. […] Thus, although this assay is only qualitative, the tendency observed among these chalcones nicely fits the reactivity described for α-X-2´3,4,4´-tetramethylchalcones.
A 500 µM sample of the tested compound was incubated with 5 mM reduced L-glutathione for 24 h at 37 °C with a final volume of 200 μL. As a solvent system, 20 mM PBS buffer pH 7.4 with 2 mM EDTA:DMSO (1:1) was used. To perform the assay, stock solutions of 20 mM of the chalcones (9, 10, 13 and 18) and 15 mM of reduced L-glutathione were freshly prepared for every experiment and then diluted properly to give the final electrophile:nucleophile ratio (1:10). A 5 mM solution of 5,5′-dithiobis(2-nitrobenzoic acid) (DTNB) was prepared in the same solvent system to quench the reaction. After different time points (10 min, 1 h, 4 h and 24 h), an aliquot of 20 μL of the incubation mixture was quenched by adding 20 μL of the DTNB stock solution, mixed thoroughly, and then analyzed by HPLC. HPLC analysis was performed in Agilent 1120 compact LC, column ACE 5 C18-300 (15 cm × 4.6 mm); UV detection was performed at λ = 254 nm. Solvents used were acetonitrile for bottle A and H2O (containing 0.05% TFA) for bottle B, and the flow rate was 1mL/min. The gradients used were: (A) incubations with chalcone 9: from 10% to 80% of solvent A in 10 min; (B) incubations with chalcones 10 and 18: from 10% to 100% of solvent A in 10 min. The new peaks were analysed by LC-MS. As controls, a 500 μM solution of the α,β-unsaturated compound was also analysed, and a 5 mM reduced L-glutathione solution was quenched by adding DNTB at the same time points. In general, after 6 h of incubation, no GSH was detected.

NCI-H460 cells = assay: Cell proliferation assay (IncuCyte confluence), NCI-H460; format: cell-based; settings: Homo sapiens; NCI-H460 lung carcinoma; 72 h; mean of two independent experiments ± SEM; read-out: IC50 antiproliferative activity NCI-H460
Procedure: as §1, §2

Hap-1 cells = assay: Cell proliferation assay (IncuCyte confluence), Hap-1; format: cell-based; settings: Homo sapiens, HAP1; Hap-1 chronic myeloid leukemia; 72 h; mean of two independent experiments ± SEM; read-out: IC50 antiproliferative activity Hap-1
Procedure: as §1, §2

K-562 cells = assay: Cell proliferation assay (IncuCyte confluence), K-562; format: cell-based; settings: Homo sapiens, K562; K-562 chronic myeloid leukemia; 72 h; mean of two independent experiments ± SEM; read-out: IC50 antiproliferative activity K-562
Procedure: as §1, §2

DND-41 cells = assay: Cell proliferation assay (IncuCyte confluence), DND-41; format: cell-based; settings: DND41; DND-41 acute lymphoblastic leukemia; 72 h; mean of two independent experiments ± SEM; read-out: IC50 antiproliferative activity DND-41
Procedure: as §1, §2

HL-60 cells = assay: Cell proliferation assay (IncuCyte confluence), HL-60; format: cell-based; settings: Homo sapiens; HL-60 acute myeloid leukemia; 72 h; mean of two independent experiments ± SEM; read-out: IC50 antiproliferative activity HL-60
Procedure: as §1, §2

Row | SMILES | IC50 (XPO1) [µM] | IC50 (HCT-116 cells) [µM] | Antiproliferative activity, in words [1] | melting point [°C] | IC50 (Z-138 cells) [µM] | Reaction with GSH (hetero-Michael addition), qualitative [2] | Reversibility of GSH adducts (retro-Michael), qualitative ([2]; longer incubation) | IC50 (NCI-H460 cells) [µM] | IC50 (Hap-1 cells) [µM] | IC50 (K-562 cells) [µM] | IC50 (DND-41 cells) [µM] | XPO1 inhibition, in words (XPO1) | IC50 (HL-60 cells) [µM]
1 | NC(=O)C(=Cc1cncnc1)C(=O)c1ccc2ccccc2c1 [Compound 5, reference compound] | 9.18 ± 3.28 |  |  |  |  |  |  |  |  |  |  |  | 
2 | COC(=O)/C(=C/c1cncnc1)C(=O)c1ccc2ccccc2c1 [Compound 13, (E)-2-Methoxycarbonyl-1-(naphthalene-2-yl)-3-(pyrimidin-5-yl)prop-2-en-1-one] | > 100 | ≥ 15.5 | almost inactive | 161 to 163 | > 100 | provided the Michael adducts with GSH after a short reaction time | adducts reverted to the parent chalcone | ≥ 47.1 | ≥ 54.9 | > 100 | ≥ 30.6 | inactive against XPO1 | > 100
3 | NC(=O)/C(=C/c1cncnc1)C(=O)c1ccc2ccccc2c1 [Compound 15, (E)-2-Carbamoyl-1-(naphthalene-2-yl)-3-(pyrimidin-5-yl)prop-2-en-1-one] | ~10 | 5.3 ± 3.1 | slightly less active than the parent chalcone 9 |  | 5.1 ± 2.7 |  |  | 2.6 ± 0.7 | 2.1 ± 0.7 | 2.1 ± 0.1 | 8.9 ± 0.9 |  | 5.5 ± 3.6
4 | C/C(=C\c1cncnc1)C(=O)c1ccc2ccccc2c1 [Compound 18, (E)-2-Methyl-1-(naphthalen-2-yl)-3-(pyrimidin-5-yl)prop-2-en-1-one] | > 100 | > 100 | almost inactive |  | > 100 | remained almost unaltered even after 4 h of incubation |  | > 100 | > 100 | 48.5 ± 2.4 | 39.1 ± 5.3 | inactive against XPO1 | ≥ 40.9
5 | O=C(/C=C/c1cccnc1)c1ccc2ccccc2c1 [Compound 24, (E)-1-(Naphthalen-2-yl)-3-(pyridin-3-yl)prop-2-en-1-one] | 1.27 ± 0.29 | 3.1 ± 0.9 | low µM range | 123 to 125 | 1.6 ± 0.1 |  |  | 4.3 ± 2.2 | 1.6 ± 0.1 | 2.2 ± 0.03 | 1.8 ± 0.5 |  | 3.5 ± 2.1
6 | O=C(/C=C/c1ccccn1)c1ccc2ccccc2c1 [Compound 25, (E)-1-(Naphthalen-2-yl)-3-(pyridin-2-yl)prop-2-en-1-one] | 7.28 ± 1.34 | 3.9 ± 1.5 | low µM range | 89 to 90 | 2.3 ± 0.5 |  |  | 51.6 ± 11.7 | 3.4 ± 0.5 | 4.8 ± 2.8 | 2.6 ± 0.4 |  | 1.8 ± 0.05
7 | O=C(/C=C/c1ccncc1)c1ccc2ccccc2c1 [Compound 26, (E)-1-(Naphthalen-2-yl)-3-(pyridin-4-yl)prop-2-en-1-one] | 10.7 ± 3.24 | 1.9 ± 0.4 | low µM range | 135 to 137 | 1.1 ± 0.4 |  |  | 7.7 ± 1.1 | 2.3 ± 0.3 | 4 ± 0.2 | 1.9 ± 0.4 |  | 0.9 ± 0.2
8 | COC(=O)/C(=C\c1cncnc1)C(=O)c1cc(OC)cc(OC)c1 [Compound 30, (E)-2-Methoxycarbonyl-1-(3′,5′-dimethoxybenzoyl)-3-(pyrimidin-5′-yl)prop-2-en-1-one] | 87.3 ± 4.91 | ≥ 22.2 | considerably less active than the α-H chalcone 10 | 81 to 82 | 47.6 ± 1.1 |  |  | 17.3 ± 4.6 | ≥ 32 | 42.9 ± 0.1 | 43.2 ± 6.4 | almost inactive against XPO1 | 23.4 ± 1.9
9 | COCCOc1cc(OC)cc(C(=O)/C=C/c2cncnc2)c1 [Compound 33, (E)-1-(3′-Methoxy-5′-(2-methoxyethoxy)phenyl)-3-(pyrimidin-5′’-yl)prop-2-en-1-one] | 12.3 ± 1.28 | 34.2 ± 6.5 |  |  | 1.5 ± 0.2 |  |  | 16.9 ± 4.5 | 4.3 ± 2.5 | 37.5 ± 0.9 | 3.7 ± 1.6 | active | 10 ± 0.9
10 | COc1cc(OCC=C(C)C)cc(C(=O)/C=C/c2cncnc2)c1 [Compound 34, (E)-1-(3′-Methoxy-5′-((3-methylbut-2-en-1-yl)oxy)phenyl)-3-(pyrimidin-5′’-yl)prop-2-en-1-one] | 1.59 ± 0.36 | 52.9 ± 3.6 |  |  | 4.6 ± 2.7 |  |  | 34.5 ± 5.2 | 10 ± 2 | 4.1 ± 1.9 | 10.1 | active | 40.2 ± 10.1
